The source of these data is patent US20220119431A1, “SALT OF EGFR INHIBITOR, CRYSTAL FORM, AND PREPARATION METHOD THEREFOR” (priority 2019, published 2022).

Series [1] has as its system L858R/T790M/C797S mutation. As to conditions: in combination with an EGFR monoclonal antibody drug such as Cetuximab; cited from earlier work.
Series [2] concerns Ba/F3 (Δ19 del/T790M/C797S). The series can be described thus: In vivo efficacy in BALB/c nude mice with subcutaneous Ba/F3 (Δ19 del/T790M/C797S) xenograft (CDX). As to conditions: for tumor volume inhibition value (TGI): 13 consecutive days. As for the experimental part:
In vivo drug efficacy experiment was performed on xenograft (CDX) BALB/c nude mice subcutaneously implanted with Ba/F3 (Δ19 del/T790M/C797S) source. BALB/c nude mice (female, 6-8 weeks, weighing about 18-22 g) were bred in SPF-rated environments, and each cage was ventilated individually (5 mice per cage). All animals were free to obtain a standard certified commercial laboratory diet. 48 mice in total were purchased from Beijing Vital River Laboratory Animal Technology Co., Ltd for the study. Each mouse was implanted with cells subcutaneously in the right flank for tumor growth. The experiment was started when the mean tumor volume reached about 80-120 mm^3. The test compound was administered orally daily with the compound of formula (I) (5 mg/kg, 15 mg/kg, 45 mg/kg, respectively) administered for 13 consecutive days, and the data are shown in Table 5. Tumor volume was measured twice weekly with a two-dimensional caliper, and the volume was measured in mm^3 and calculated according to the following formula: V=0.5a×b^2, where a and b are the long and short diameters, respectively, of the tumor. Anti-tumor efficacy was determined by dividing the mean tumor increase volume of compound-treated animals by the mean tumor increase volume of untreated animals.

Series [3] in a line: Plasma, tumor and lung exposure in the efficacy-study mice after last administration. Type of series: in vivo, BALB/c nude mice. The settings on record: 15.0 mg/kg/day oral. As for the experimental part: On day 14 after administration to the groups for the efficacy experiment, before the last administration and 2 h after the last administration, the plasma of the mice was collected by blood collection from the submandibular vein, and the plasma of the mice was collected at 1 h, 4 h, 8 h, and 24 h after the administration. About 100 μL of blood was collected each time, placed in an anticoagulation tube, and centrifuged at 8000 rpm for 7 min to collect blood plasma, and the blood plasma was preserved at −80° C. Tissues of mouse lung and tumor were collected at the same time 2 h after the administration and stored at −80° C.

The subject of the next series is lung cancer PC-9 cells. The series is described as follows: In vivo efficacy in mice with subcutaneous lung cancer PC-9 xenograft. Set-up: species or system mouse. As to conditions: 50 mg/kg (0-9 days), 25 mg/kg (10-21 days) oral once a day. As for the experimental part:
1. Cell culture: lung cancer PC-9 cells were cultured in an RPMI 1640 medium containing 10% fetal bovine serum, 100 U/mL penicillin and 100 μg/mL streptomycin through in vitro monolayer culture in an incubator at 37° C./5% CO2. The cells were digested with trypsin-EDTA twice a week for passaging as per conventional practice. At a cell saturation of 80%-90% and a required number, the cells were collected and counted. The cell density was 5×10^6 cells. 2. Cell inoculation: 0.2 mL (containing 5×10^6) of a suspension of PC-9 cells (PBS:Matrigel=1:1) was subcutaneously inoculated in the right back of each mouse, and 64 mice were inoculated in total. On day 7 after inoculation, when mean tumor volume was measured to be 169 mm^3, grouping administration was performed using a randomized stratified grouping method based on tumor volume and mice body weight. PBS is phosphate buffered saline, and Matrigel is matrigel. 3. Administration: the dosage was 50 mg/kg for 0-9 days and 25 mg/kg for 10-21 days; the drug was orally administrated once a day for 3 weeks.
Tumor diameters were measured twice weekly using a vernier caliper. The tumor volume was calculated using the following formula: V=0.5a×b^2, where a and b represent the long diameter and short diameter of the tumor respectively.
The efficacy of compounds against tumor was evaluated by TGI (%).
Relative tumor volume (RTV) was calculated based on the results of tumor measurement. The formula is RTV=Vt/V0, where V0 represents the tumor volume measured at the time point of grouping and administration (i.e., Do), and Vt represents the tumor volume at a certain measurement for the corresponding mouse, the data of TRTV and CRTV should be measured on the same day.
TGI (%) reflects the tumor growth inhibition rate. TGI (%)=[(1−(average tumor volume at the end of administration in a treatment group−average tumor volume at the start of administration of the treatment group))/(average tumor volume at the end of treatment of the solvent control group−average tumor volume at the start of treatment of the solvent control group)]×100%.
Tumor weights will be measured at the end of the experiment and the TGI (%) was calculated.

The mark [4] stands for this setting: BALB/c nude, mouse, plasma, day 14.

For `O=C(Nc1nccs1)C(c1cc(F)ccc1O)N1Cc2ccccc2C1=O` (centres unmarked) [EAI045], the tumor inhibitory effect entry in series [1] is reported as “good tumor inhibitory effect”.

For orientation: AUC(0-t) means exposure summed from dosing to a finite time, without extrapolation to infinity. Low values mean less exposure, high ones more exposure. As usually defined, the half-life is the time needed for the level to fall by half in the phase considered. Higher therefore signals slow loss. Broadly, the TGI is the reduction of tumour growth relative to the control group. A higher TGI goes with much slowing of growth. For `COc1cc(N2CCC(N3CCN(C)CC3)CC2)c(C)cc1Nc1ncc(Br)c(Nc2ccc3nccnc3c2P(C)(C)=O)n1` [Compound of formula (I)], the Tumor volume is listed as 84 mm^3 in series [2] (5 mg/kg/day oral, Day 0); 108 mm^3 in series [2] (5 mg/kg/day oral, Day 2); 212 mm^3 in series [2] (5 mg/kg/day oral, Day 5); 395 mm^3 in series [2] (5 mg/kg/day oral, Day 8); 505 mm^3 in series [2] (5 mg/kg/day oral, Day 10); 748 mm^3 in series [2] (5 mg/kg/day oral, Day 12). Moreover, the Tumor volume in series [2] (5 mg/kg/day oral, Day 13) turned out to be 881 mm^3; in series [2] (15 mg/kg/day oral, Day 0), 84 mm^3; in series [2] (15 mg/kg/day oral, Day 2) it was 76 mm^3; in series [2] (15 mg/kg/day oral, Day 5) it was 107 mm^3; in series [2] (15 mg/kg/day oral, Day 8), 126 mm^3; in series [2] (15 mg/kg/day oral, Day 10), 176 mm^3. Further, the Tumor volume in series [2] (15 mg/kg/day oral, Day 12) worked out at 292 mm^3; in series [2] (15 mg/kg/day oral, Day 13) it was 326 mm^3; in series [2] (45 mg/kg/day oral, Day 0) it was 84 mm^3; in series [2] (45 mg/kg/day oral, Day 2), 56 mm^3; in series [2] (45 mg/kg/day oral, Day 5), 32 mm^3; in series [2] (45 mg/kg/day oral, Day 8) it was 35 mm^3. The Tumor volume in series [2] (45 mg/kg/day oral, Day 10) worked out at 42 mm^3; in series [2] (45 mg/kg/day oral, Day 12) it was 73 mm^3; in series [2] (45 mg/kg/day oral, Day 13), 68 mm^3; in the series on lung cancer PC-9 cells (Day 0), 185 mm^3; in the series on lung cancer PC-9 cells (Day 2), 198 mm^3; with lung cancer PC-9 cells (Day 6) it was 92 mm^3. The Tumor volume in the series with lung cancer PC-9 cells (Day 9) came out at 75 mm^3; with lung cancer PC-9 cells (Day 13) it was 40 mm^3; with lung cancer PC-9 cells (Day 16), 45 mm^3; in the series on lung cancer PC-9 cells (Day 20), 76 mm^3; with lung cancer PC-9 cells (Day 23) it was 111 mm^3. The “tumor volume inhibition value (TGI)” value in series [2] (15 mg/kg oral daily) is given as 74.9%; in series [2] (45 mg/kg oral daily), 101.69%. Further, in series [3] (2 h after last administration), the “Lung concentration, 2 h” value came to 32533 nmol/kg. For the same compound, the “Tumor concentration, 2 h” value in series [3] (2 h after last administration) is 16667 nmol/kg. Also, the concentration at 2 h in series [3] (BALB/c nude, mouse, plasma, 2 h after last administration) is 3.55 µM. The AUC(0-t) in series [3] (setting [4]) came to 57 µM·h. This compound showed a half-life in series [3] (setting [4]) of 10 h. Also, the TGI with lung cancer PC-9 cells (day 23) came to 100%.
